Columns and labels:
Test in all cases: Histone peptide microarray
Assay type in all cases: binding, human
AIRE (PP) = settings: for Array Heatmap value (peptide array signal): AIRE (PP), sheet "Array Heatmap", each array performed twice, total n = 4
How it was run: (§1)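 Using an optimized microarray protocol, purified GST-tagged PHD fingers were incubated at 0.5 μM on 293 histone peptides with single or multiple modifications, and array signal was recorded as the average of 4 replicates.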

BAZ2B = settings: for Array Heatmap value (peptide array signal): BAZ2B, sheet "Array Heatmap", each array performed twice, total n = 4
How it was run: as §1

BPTF (PB) = settings: for Array Heatmap value (peptide array signal): BPTF (PB), sheet "Array Heatmap", each array performed twice, total n = 4
How it was run: as §1

CHD4 (PPCC) = settings: for Array Heatmap value (peptide array signal): CHD4 (PPCC), sheet "Array Heatmap", each array performed twice, total n = 4
How it was run: as §1

CHD5 (PCC) = settings: for Array Heatmap value (peptide array signal): CHD5 (PCC), sheet "Array Heatmap", each array performed twice, total n = 4
How it was run: as §1

CHD5 (PPCC) = settings: for Array Heatmap value (peptide array signal): CHD5 (PPCC), sheet "Array Heatmap", each array performed twice, total n = 4
How it was run: as §1

DIDO1 = settings: for Array Heatmap value (peptide array signal): DIDO1, sheet "Array Heatmap", each array performed twice, total n = 4
How it was run: as §1

DPF2 (PPC2W2) = settings: for Array Heatmap value (peptide array signal): DPF2 (PPC2W2), sheet "Array Heatmap", each array performed twice, total n = 4
How it was run: as §1

ING1 = settings: for Array Heatmap value (peptide array signal): ING1, sheet "Array Heatmap", each array performed twice, total n = 4
How it was run: as §1

ING2 = settings: for Array Heatmap value (peptide array signal): ING2, sheet "Array Heatmap", each array performed twice, total n = 4
How it was run: as §1

ING3 = settings: for Array Heatmap value (peptide array signal): ING3, sheet "Array Heatmap", each array performed twice, total n = 4
How it was run: as §1

ING4 = settings: for Array Heatmap value (peptide array signal): ING4, sheet "Array Heatmap", each array performed twice, total n = 4
How it was run: as §1

ING5 = settings: for Array Heatmap value (peptide array signal): ING5, sheet "Array Heatmap", each array performed twice, total n = 4
How it was run: as §1

KDM4C (TTP) = settings: for Array Heatmap value (peptide array signal): KDM4C (TTP), sheet "Array Heatmap", each array performed twice, total n = 4
How it was run: as §1

KDM5A (1) = settings: for Array Heatmap value (peptide array signal): KDM5A (1), sheet "Array Heatmap", each array performed twice, total n = 4
How it was run: as §1

KDM5A (3) = settings: for Array Heatmap value (peptide array signal): KDM5A (3), sheet "Array Heatmap", each array performed twice, total n = 4
How it was run: as §1

KDM5B (1) = settings: for Array Heatmap value (peptide array signal): KDM5B (1), sheet "Array Heatmap", each array performed twice, total n = 4
How it was run: as §1

KDM5B (3) = settings: for Array Heatmap value (peptide array signal): KDM5B (3), sheet "Array Heatmap", each array performed twice, total n = 4
How it was run: as §1

KDM7A = settings: for Array Heatmap value (peptide array signal): KDM7A, sheet "Array Heatmap", each array performed twice, total n = 4
How it was run: as §1

MLL5 = settings: for Array Heatmap value (peptide array signal): MLL5, sheet "Array Heatmap", each array performed twice, total n = 4
How it was run: as §1

MORC3 (CW) = settings: for Array Heatmap value (peptide array signal): MORC3 (CW), sheet "Array Heatmap", each array performed twice, total n = 4
How it was run: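 Steps: express and purify GST-tagged PHD reader; incubate 0.5 μM protein on a peptide microarray (293 histone peptides, single or combined PTMs) following an optimized protocol; average signal across 4 replicates.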

PHF13 = settings: for Array Heatmap value (peptide array signal): PHF13, sheet "Array Heatmap", each array performed twice, total n = 4
How it was run: as §1

PHF21A = settings: for Array Heatmap value (peptide array signal): PHF21A, sheet "Array Heatmap", each array performed twice, total n = 4
How it was run: as §1

PHF23 = settings: for Array Heatmap value (peptide array signal): PHF23, sheet "Array Heatmap", each array performed twice, total n = 4
How it was run: as §1

PHF2 = settings: for Array Heatmap value (peptide array signal): PHF2, sheet "Array Heatmap", each array performed twice, total n = 4
How it was run: as §1

PHF8 = settings: for Array Heatmap value (peptide array signal): PHF8, sheet "Array Heatmap", each array performed twice, total n = 4
How it was run: as §1

PHRF1 (RP) = settings: for Array Heatmap value (peptide array signal): PHRF1 (RP), sheet "Array Heatmap", each array performed twice, total n = 4
How it was run: as §1

RAG2 = settings: for Array Heatmap value (peptide array signal): RAG2, sheet "Array Heatmap", each array performed twice, total n = 4
How it was run: as §1

SP140L = settings: for Array Heatmap value (peptide array signal): SP140L, sheet "Array Heatmap", each array performed twice, total n = 4
How it was run: as §1

TAF3 = settings: for Array Heatmap value (peptide array signal): TAF3, sheet "Array Heatmap", each array performed twice, total n = 4
How it was run: as §1

TRIM66 (PB) = settings: for Array Heatmap value (peptide array signal): TRIM66 (PB), sheet "Array Heatmap", each array performed twice, total n = 4
How it was run: as §1

H3Cit2 + K4ac + K9ac + K14ac + K18ac: H3 1-20
Array Heatmap signal, AIRE (PP) (AIRE (PP); GST-tagged AIRE (PP), histone peptide array, arrays performed twice, n of 4): 0.5046 | Array Heatmap signal, BAZ2B (BAZ2B; GST-tagged BAZ2B, histone peptide array, arrays performed twice, n of 4): 0.5241 | Array Heatmap signal, BPTF (PB) (BPTF (PB); GST-tagged BPTF (PB = PHD + Bromodomain), histone peptide array, arrays performed twice, n of 4): 0.3441 | Array Heatmap signal, CHD4 (PPCC) (CHD4 (PPCC); GST-tagged CHD4 (PPCC = Dual PHD + Dual Chromodomain), histone peptide array, arrays performed twice, n of 4): 0.5849 | Array Heatmap signal, CHD5 (PCC) (CHD5 (PCC); GST-tagged CHD5 (PCC = PHD + Dual Chromodomain), histone peptide array, arrays performed twice, n of 4): 0.8259 | Array Heatmap signal, CHD5 (PPCC) (CHD5 (PPCC); GST-tagged CHD5 (PPCC = Dual PHD + Dual Chromodomain), histone peptide array, arrays performed twice, n of 4): 0.5544 | Array Heatmap signal, DIDO1 (DIDO1; GST-tagged DIDO1, histone peptide array, arrays performed twice, n of 4): 0.6333 | Array Heatmap signal, DPF2 (PPC2W2) (DPF2 (PPC2W2); GST-tagged DPF2 (PPC2W2 = Dual PHD + C2W2-type Zn-finger), histone peptide array, arrays performed twice, n of 4): 0.6168 | Array Heatmap signal, ING1 (ING1; GST-tagged ING1, histone peptide array, arrays performed twice, n of 4): 0.5011 | Array Heatmap signal, ING2 (ING2; GST-tagged ING2, histone peptide array, arrays performed twice, n of 4): 0.5962 | Array Heatmap signal, ING3 (ING3; GST-tagged ING3, histone peptide array, arrays performed twice, n of 4): 0.4982 | Array Heatmap signal, ING4 (ING4; GST-tagged ING4, histone peptide array, arrays performed twice, n of 4): 0.466 | Array Heatmap signal, ING5 (ING5; GST-tagged ING5, histone peptide array, arrays performed twice, n of 4): 0.342 | Array Heatmap signal, KDM4C (TTP) (KDM4C (TTP); GST-tagged KDM4C (TTP = Tandem Tudor domain + PHD), histone peptide array, arrays performed twice, n of 4): 0.4985 | Array Heatmap signal, KDM5A (1) (KDM5A (1); GST-tagged KDM5A (1), histone peptide array, arrays performed twice, n of 4): 0.4761 | Array Heatmap signal, KDM5A (3) (KDM5A (3); GST-tagged KDM5A (3), histone peptide array, arrays performed twice, n of 4): 0.3736 | Array Heatmap signal, KDM5B (1) (KDM5B (1); GST-tagged KDM5B (1), histone peptide array, arrays performed twice, n of 4): 0.646 | Array Heatmap signal, KDM5B (3) (KDM5B (3); GST-tagged KDM5B (3), histone peptide array, arrays performed twice, n of 4): 0.5221 | Array Heatmap signal, KDM7A (KDM7A; GST-tagged KDM7A, histone peptide array, arrays performed twice, n of 4): 0.3757 | Array Heatmap signal, MLL5 (MLL5; GST-tagged MLL5, histone peptide array, arrays performed twice, n of 4): 0.5262 | Array Heatmap signal, MORC3 (CW) (MORC3 (CW); GST-tagged MORC3 (CW = CW-type Zn-finger), histone peptide array, arrays performed twice, n of 4): 0.3458 | Array Heatmap signal, PHF13 (PHF13; GST-tagged PHF13, histone peptide array, arrays performed twice, n of 4): 0.6115 | Array Heatmap signal, PHF21A (PHF21A; GST-tagged PHF21A, histone peptide array, arrays performed twice, n of 4): 0.4553 | Array Heatmap signal, PHF23 (PHF23; GST-tagged PHF23, histone peptide array, arrays performed twice, n of 4): 0.5298 | Array Heatmap signal, PHF2 (PHF2; GST-tagged PHF2, histone peptide array, arrays performed twice, n of 4): 0.465 | Array Heatmap signal, PHF8 (PHF8; GST-tagged PHF8, histone peptide array, arrays performed twice, n of 4): 0.3508 | Array Heatmap signal, PHRF1 (RP) (PHRF1 (RP); GST-tagged PHRF1 (RP), histone peptide array, arrays performed twice, n of 4): 0.4027 | Array Heatmap signal, RAG2 (RAG2; GST-tagged RAG2, histone peptide array, arrays performed twice, n of 4): 0.246 | Array Heatmap signal, SP140L (SP140L; GST-tagged SP140L, histone peptide array, arrays performed twice, n of 4): 0.3325 | Array Heatmap signal, TAF3 (TAF3; GST-tagged TAF3, histone peptide array, arrays performed twice, n of 4): 0.2461 | Array Heatmap signal, TRIM66 (PB) (TRIM66 (PB); GST-tagged TRIM66 (PB = PHD + Bromodomain), histone peptide array, arrays performed twice, n of 4): 0.5899

H4K5ac + K8ac + K16ac: H4 1-23
Array Heatmap value (peptide array signal) (AIRE (PP)): 0.4269 | Array Heatmap value (peptide array signal) (BAZ2B): 0.469 | Array Heatmap value (peptide array signal) (BPTF (PB)): 0.3802 | Array Heatmap value (peptide array signal) (CHD4 (PPCC)): 0.6069 | Array Heatmap value (peptide array signal) (CHD5 (PCC)): 0.7848 | Array Heatmap value (peptide array signal) (CHD5 (PPCC)): 0.5628 | Array Heatmap value (peptide array signal) (DIDO1): 0.7386 | Array Heatmap value (peptide array signal) (DPF2 (PPC2W2)): 0.7091 | Array Heatmap value (peptide array signal) (ING1): 0.5586 | Array Heatmap value (peptide array signal) (ING2): 0.5942 | Array Heatmap value (peptide array signal) (ING3): 0.5105 | Array Heatmap value (peptide array signal) (ING4): 0.4699 | Array Heatmap value (peptide array signal) (ING5): 0.3649 | Array Heatmap value (peptide array signal) (KDM4C (TTP)): 0.487 | Array Heatmap value (peptide array signal) (KDM5A (1)): 0.4528 | Array Heatmap value (peptide array signal) (KDM5A (3)): 0.4685 | Array Heatmap value (peptide array signal) (KDM5B (1)): 0.6453 | Array Heatmap value (peptide array signal) (KDM5B (3)): 0.4621 | Array Heatmap value (peptide array signal) (KDM7A): 0.3432 | Array Heatmap value (peptide array signal) (MLL5): 0.5646 | Array Heatmap value (peptide array signal) (MORC3 (CW)): 0.3785 | Array Heatmap value (peptide array signal) (PHF13): 0.6186 | Array Heatmap value (peptide array signal) (PHF21A): 0.485 | Array Heatmap value (peptide array signal) (PHF23): 0.5402 | Array Heatmap value (peptide array signal) (PHF2): 0.5897 | Array Heatmap value (peptide array signal) (PHF8): 0.3765 | Array Heatmap value (peptide array signal) (PHRF1 (RP)): 0.4907 | Array Heatmap value (peptide array signal) (RAG2): 0.2519 | Array Heatmap value (peptide array signal) (SP140L): 0.3822 | Array Heatmap value (peptide array signal) (TAF3): 0.2628 | Array Heatmap value (peptide array signal) (TRIM66 (PB)): 0.6293

H3K18ac (1-32): H3 1-32
Array Heatmap value (peptide array signal) (AIRE (PP)): 0.5458 | Array Heatmap value (peptide array signal) (BAZ2B): 0.4901 | Array Heatmap value (peptide array signal) (BPTF (PB)): 0.3434 | Array Heatmap value (peptide array signal) (CHD4 (PPCC)): 0.5307 | Array Heatmap value (peptide array signal) (CHD5 (PCC)): 0.7075 | Array Heatmap value (peptide array signal) (CHD5 (PPCC)): 0.5424 | Array Heatmap value (peptide array signal) (DIDO1): 0.6775 | Array Heatmap value (peptide array signal) (DPF2 (PPC2W2)): 0.7444 | Array Heatmap value (peptide array signal) (ING1): 0.5268 | Array Heatmap value (peptide array signal) (ING2): 0.6127 | Array Heatmap value (peptide array signal) (ING3): 0.4519 | Array Heatmap value (peptide array signal) (ING4): 0.4589 | Array Heatmap value (peptide array signal) (ING5): 0.3576 | Array Heatmap value (peptide array signal) (KDM4C (TTP)): 0.505 | Array Heatmap value (peptide array signal) (KDM5A (1)): 0.4813 | Array Heatmap value (peptide array signal) (KDM5A (3)): 0.5027 | Array Heatmap value (peptide array signal) (KDM5B (1)): 0.7307 | Array Heatmap value (peptide array signal) (KDM5B (3)): 0.448 | Array Heatmap value (peptide array signal) (KDM7A): 0.3927 | Array Heatmap value (peptide array signal) (MLL5): 0.5655 | Array Heatmap value (peptide array signal) (MORC3 (CW)): 0.4635 | Array Heatmap value (peptide array signal) (PHF13): 0.586 | Array Heatmap value (peptide array signal) (PHF21A): 0.434 | Array Heatmap value (peptide array signal) (PHF23): 0.5317 | Array Heatmap value (peptide array signal) (PHF2): 0.4084 | Array Heatmap value (peptide array signal) (PHF8): 0.3597 | Array Heatmap value (peptide array signal) (PHRF1 (RP)): 0.6228 | Array Heatmap value (peptide array signal) (RAG2): 0.2621 | Array Heatmap value (peptide array signal) (SP140L): 0.3664 | Array Heatmap value (peptide array signal) (TAF3): 0.2816 | Array Heatmap value (peptide array signal) (TRIM66 (PB)): 0.5982

Reference: publication PMC6979384, “Characterization of the plant homeodomain (PHD) reader family for their histone tail interactions” (Epigenetics & Chromatin, 2020)
